# Columns and labels:
# C57BL/6 mice = assay: Inflammatory cell infiltration to the airways and lung tissue damage after intratracheal mycolic acid liposomes; type: in vivo; conditions: liposomes intratracheally, 25 μg mycolic acids/100 μl/mouse, after 48 hours
# Description: (§1) Female C57BL/6J mice were purchased from Janvier and housed under specific pathogen free conditions in individually ventilated cages and fed ad libitum. Mice were 8-12 weeks old at the start of experiments.
# (§2) Briefly, the compounds were mixed with phosphatidylcholine (Sigma) in chloroform. The chloroform was evaporated and the lipids recovered in sterile saline. After ultrasound sonication and vortexing, samples of 25 μg mycolic acids/100 μl/mouse were administered intratracheally. A liposome control was prepared similarly, but without the addition of any mycolic acid compound.
# In order to be considered safe for human administration, compounds should preferably cause as little local inflammation or resulting tissue changes as possible.
# After 48 hours, mice were sacrificed and a broncho-alveolar lavage (BAL) was performed to measure the airway cell types and numbers by flowcytometry. Increased cell numbers and the appearance of granulocytes (mainly neutrophils) in the BAL-fluid are indicative for cell recruitment to the airways as result of an inflammatory reaction.
# Lavaged lungs were ectomised to allow for histo-pathological examination of the lung tissue. A haematoxylin and eosin staining of the paraffin lung sections was followed by a thorough examination by a skilled pathologist who scored the sections according to the following criteria in a double-blinded manner: […]
# airway CD11c+ cells = assay: Gene transcription profiling of airway CD11c+ cells (RT-qPCR on broncho-alveolar lavage cells after intratracheal liposomes); type: in vivo, mouse; conditions: liposomes intratracheally, after 48 hours
# Description: as §1, §2
# Airway CD11c^+ cells include alveolar macrophages and dendritic cells, which are professional phagocytes and the most important cell types in the early recognition of non-self threats to the airways. Next to mounting an immediate appropriate innate immune response to these threats, CD11c^+ cells alert and instruct adaptive immune responses by means of 3 different signals: antigen-presentation, surface expression of T-cell co-stimulatory molecules and secretion of instruction cytokines. Whereas dendritic cells migrate to the draining lymph nodes in order to initiate a peripheral antigen-specific immune response, alveolar macrophages remain in the airways to further control local inflammation, but also to locally attract and orchestrate the acquired immune response by lymphocytes.
# In order for a locally applied vaccine to be effective, safe adjuvants that give the appropriate signal to CD11c^+ cells are needed to both increase the immunogenicity of the vaccine and direct the type of the acquired immune response. […] After 48 hours, the mice were sacrificed and broncho-alveolar lavage performed to measure the CD11c^+-cell gene transcription by RT-qPCR.
compound,measurement,setting,value
"CCCCCCCCCCCCCCCCCCCCCCCC[C@@H](C(=O)O)[C@H](O)CCCCCCCCCCCCCCC[C@@H]1C[C@@H]1CCCCCCCCCCCCCCCCCCC(=O)[C@@H](C)CCCCCCCCCCCCCCCCCC (single isomer, unassigned) [Example 3]",melting point,,66 to 68 °C
CCCCCCCCCCCCCCCCCCCCCCCC[C@@H](C(=O)O)[C@H](O)CCCCCCCCCCCCCCCC[C@H]1C[C@@H]1[C@@H](C)CCCCCCCCCCCCCCCCCCC(=O)C(C)CCCCCCCCCCCCCCCCCC (some centres unmarked) [Compound 4],lung tissue changes (histo-pathological examination of lung sections),C57BL/6 mice,did not cause any significant lung tissue changes
CCCCCCCCCCCCCCCCCCCCCCCC[C@@H](C(=O)O)[C@H](O)CCCCCCCCCCCCCCCCC[C@@H]1CC1CCCCCCCCCCCCCCCC[C@@H](OC)[C@@H](C)CCCCCCCCCCCCCCCCCC (some centres unmarked) [Compound 6],"type of macrophage activation (iNOS = classical, Fizz1 = alternative marker)",airway CD11c+ cells; alveolar macrophages,mixed type of activation
same,KC (CXCL1) expression,airway CD11c+ cells,increased
same,MCP-1 (CCL2) expression,airway CD11c+ cells,enhance MCP-1 expression even to a greater extend than crude-MA
same,expression of IL-12p40,airway CD11c+ cells,strongly stimulate
same,induction of expression of IL-10,airway CD11c+ cells,maintained
same,expression of the inflammatory cytokines TNF-alpha and IL-6,airway CD11c+ cells; compared with crude-MA,less pronounced or absent

# From patent US8728515B2, “Adjuvants for use in vaccination” (Bangor University, priority 2008, dated 2014)
